# Laboratory results reported in patent US6030955A, “Methods of affecting intracellular phosphorylation of tyrosine using phosphorothioate oligonucleotides, and antiangiogenic and antiproliferative uses thereof” (The Trustees of Columbia University in The City of New York …, priority 1996, dated 2000).
# Tested on: cell surface flk-1
# Experiment: FACS analysis of blockade of anti-flk-1 MAb binding to C441 cells
# Parameters: species or system mouse/human
# Conditions: cells preincubated with 10 μg/ml heparin
# Experimental: For binding studies, C441 cells were removed with 2 mM EDTA in PBS, washed with cold Hanks balanced salt solution supplemented with 1% BSA (HBSS-BSA) and then resuspended in 100 μl of the same buffer at a concentration of 1 million cells per sample. Where indicated, cells were incubated with 2 μM oligodeoxynucleotides of 10 μg/ml heparin. After a 30 minute incubation on ice, cells were washed and reincubated for 30 minutes with 10 μg of the appropriate MAb. After washing, a 1:40 dilution of goat anti-mouse lgG conjugated to FITC (TAGO) was added for a final 30 minute incubation on ice. Cells were then analyzed on a Coulter Epics Elite Cytometer.
substance,measurement,value
heparin,binding of anti-flk-1 MAb 73 to C441 cells,inhibition
same,binding of anti-flk-1 MAb 115 to C441 cells,inhibition
